Data set [1] concerns S. aureus or P. aeruginosa membrane. The experiment in a line: Flow cytometry with propidium iodide. The format is cell-based. The conditions noted are these: 2×MIC, 1 hour at 37° C. The method, then: Specifically, S. aureus or P. aeruginosa was treated for 1 hour at 37° C. with the mother peptide Hp1404, or Hp1404-T1c, Hp1404-T1d or Hp1404-T1e peptide (at concentration of 2×MIC). After that, the supernatant was removed by centrifuge (10,000 rpm) and stained with propidium iodide (PI, concentration of 10 μg/ml) for 30 minutes at 4° C. Thereafter, unbound propidium iodide was removed by centrifuge, and the problem of cell aggregation phenomenon was solved by adding physiological saline (PBS) in an amount of 1 ml.
Background: A flow cytometer gives signals particle by particle.

Data set [2] in a line: Cytotoxicity in normal cell line (MTT). The conditions noted are these: human, HaCaT keratinocytes, read-out: Cell survival ability; for viability at 24 h, 6.25 µM: peptide concentration 6.25 μM; for viability at 24 h, 12.5 µM: peptide concentration 12.5 μM; for viability at 24 h, 25 µM: peptide concentration 25 μM; for viability at 24 h, 50 µM: peptide concentration 50 μM; for viability at 24 h, 100 µM: peptide concentration 100 μM; for viability at 24 h, 200 µM: peptide concentration 200 μM, HaCaT. Format: cell-based. The method, then:
To determine the cytotoxicity of the peptide produced by the method of Example 1 in normal cell line, toxicity was measured by using human keratinocytes (HaCaT cell line, Dr. N E. Fusenig, Heidelberg, Germany).
Specifically, HaCaT cells which have been cultured in DMEM medium containing 10% FBS (Fetal Bovine Serum) were aliquoted in a 96-well plate to have 2×10^5 cells per well. After culturing them for 24 hours, the cells were subjected to a treatment with Hp1404, Hp1404-T1, Hp1404-T1a, Hp1404-T1b, Hp1404-T1c, Hp1404-T1d, or Hp1404-T1e, each at concentration of 6.25, 12.5, 25.0, 50.0, 100.0 or 200.0 μM/well, followed by reaction for 24 hours in a 5% CO2 incubator. After 24 hours, a reaction solution containing 0.5 mg/ml MTT (Thiazolyl Blue Tetrazolium Bromide) dissolved in physiological saline (PBS) was added in an amount of 100 μl to each well and the reaction was allowed to occur for 4 hours. After that, the supernatant was removed, and, by dissolving MTT crystals that are formed by adding 200 μl of DMSO (dimethyl sulfoxide), the absorbance at 560 nm was measured to determine the cell survival ability.

In data set [3] the test system is E. coli. Nature of the data set: MIC, E. coli. The format is cell-based, Escherichia coli. The conditions noted are these: E. coli (ATCC 25922), 18 hours at 37° C. The text has this: (§1) To compare the antimicrobial activity among the peptides produced by the method of Example 1, the inventors of the present invention measured the minimal growth inhibitory concentration (MIC), which is minimum concentration of the peptide showing no dissociation of bacterial cells.
(§2) Specifically, the bacterial strain described in the following Table 2 was purchased and cultured to a mid-log phase in each medium with a composition suitable for each strain. Then, after dilution to bacterial cell concentration of 2×10^4 cells/100 μl, the cells were inoculated to a microtiter plate (NUNC, USA). Thereafter, Hp1404-T1, Hp1404-T1a, Hp1404-T1b, Hp1404-T1c, Hp1404-T1d or Hp1404-T1e peptide which has been synthesized in Example 1 above was subjected to serial dilution, ½ times for each, with BSA (bovine serum albumin) solution in a 96-well plate. After adding the cells to a plate, the cells were cultured for 18 hours at 37° C. By using a microtiter plate reader (Merck Elisa reader, Germany), the absorbance was measured at a wavelength of 600 nm to determine the MIC value of each bacterial strain. As a control group, Hp1404 as a mother peptide was used.

Data set [4] relates to lipopolysaccharide (LPS) isolated from P. aeruginosa. The experiment in a line: Binding ability between lipopolysaccharide (LPS) and peptide. The conditions noted are these: peptide at 1×MIC. The method, then: By using the peptides prepared by the method of Example 1, binding to lipopolysaccharide (LPS), which is a constitutional component of a cell wall of Gram-negative bacteria, was examined. LPS used in the present invention was isolated from P. aeruginosa. Lipopolysacchride (0 to 100 μg/ml) was diluted with 10 mM sodium phosphate buffer (pH 7.2), reacted with each peptide at a concentration of 1× or 2×MIC, and then cultured with the bacteria at 2×10^5 CFU/ml. By measuring the absorbance at 600 nm, the binding ability to the peptide was determined. Additionally, after reacting 0.1% […] with the peptide (40 μM) in an incubator, the secondary structure was examined by circular dichroism (CD) spectroscopy.

Data set [5] relates to erythrocytes of a mouse (Balb/c). The experiment in a line: Hemolytic activity. The format is cell-based. As for the experimental part: To compare the cytotoxicity among the peptides that are produced by the method of Example 1, erythrocyte hemolytic activity of the synthesized peptide was measured.
Specifically, erythrocytes of a mouse (Balb/c, 6 week old, female) were diluted in physiological saline (PBS, pH 7.0) to have concentration of 8%, and then subjected to a treatment with Hp1404, Hp1404-T1, Hp1404-T1a, Hp1404-T1b, Hp1404-T1c, Hp1404-T1d or Hp1404-T1e, each at concentration of 6.25, 12.5, 25.0, 50.0, 100.0 and 200.0 μM/well, respectively, followed by a reaction for 1 hour at 37° C. After that, the amount of hemoglobin contained in a supernatant collected by centrifuge at 1,000×g was determined by measuring the absorbance at a wavelength of 414 nm. As a control group to be used as a reference for cell disruption level, the supernatant collected by a treatment with 1% Triton X-100 (Sigma, USA) and a reaction for 1 hour at 37° C. was used to measure the absorbance. By setting the resulting absorbance value at 100%, the hemolytic activity of each peptide was calculated using the following mathematical formula 1. Erythrocyte disrupting ability (hemolysis) (%)=(Absorbance A−Absorbance B)/(Absorbance C−Absorbance B)×100 [Mathematical formula 1] (in the above formula, Absorbance A indicates the absorbance of a reaction solution treated with each peptide, in which the absorbance is measured at a wavelength of 414 nm; Absorbance B indicates the absorbance of a reaction solution treated with PBS, in which the absorbance is measured at a wavelength of 414 nm; and Absorbance C indicates the absorbance of a reaction solution treated with 1% Triton X-100, in which the absorbance is measured at a wavelength of 414 nm).

Data set [6] has as its system S. aureus. The experiment in a line: MIC, S. aureus. The format is cell-based, Staphylococcus aureus. Particulars: S. aureus (ATCC 25923), 18 hours at 37° C.
From the text: as §1, §2

Where no end group is shown, it is not given here. Where only a bound is given, the exact number is not on record here.

For the substance GILGKLWEGVKSIF-NH2 [Hp1404], the “propidium iodide fluorescence signal shift (membrane damage)” value in data set [1] is recorded as “bacteria membrane was damaged”. For the same substance, the viability at 24 h, 6.25 µM in data set [2] is 100%. In data set [2], the viability at 24 h, 12.5 µM was found to be 100%. Also, the viability at 24 h, 25 µM in data set [2] came out at 100%. Also, the viability at 24 h, 50 µM in data set [2] is 30.5%. Moreover, in data set [2], the viability at 24 h, 100 µM turned out to be 0.11%. Moreover, the viability at 24 h, 200 µM in data set [2] was 0%. Moreover, the Minimal inhibitory concentration in data set [3] is 6.25 µM; in data set [6] it was 3.13 µM. For the same substance, in data set [4], the “binding to LPS, rank order” value is “binding to LPS increases in order of Hp1404-T1e, Hp1404-T1d, Hp1404-T1c, and Hp1404”. For the same substance, the Erythrocyte disrupting ability in data set [5] (peptide concentration 6.25 μM) came to 0.01%; in data set [5] (peptide concentration 12.5 μM), 2.16%; in data set [5] (peptide concentration 25 μM), 11.01%; in data set [5] (peptide concentration 50 μM), 55.41%; in data set [5] (peptide concentration 100 μM) it was 92.64%; in data set [5] (peptide concentration 200 μM, 1 hour at 37° C., relative to 1% Triton X-100) it was 100%.

Regarding ILKKLLKKVKKI-NH2 [Hp1404-T1e], the “propidium iodide fluorescence signal shift (membrane damage)” value in data set [1] was “no such shift of fluorescence signal”. Besides, the viability at 24 h, 6.25 µM in data set [2] was determined as 100%. Also, the viability at 24 h, 12.5 µM in data set [2] was found to be 100%. The viability at 24 h, 25 µM in data set [2] amounted to 100%. In data set [2], the viability at 24 h, 50 µM amounted to 100%. Also, the viability at 24 h, 100 µM in data set [2] came out at 100%. Moreover, in data set [2], the viability at 24 h, 200 µM was determined as 100%. In addition, the Minimal inhibitory concentration was above 25 µM in data set [3] and 3.13 µM in data set [6]. For the same substance, the “binding to LPS, rank order” value in data set [4] is “binding to LPS increases in order of Hp1404-T1e, Hp1404-T1d, Hp1404-T1c, and Hp1404”. Moreover, the Erythrocyte disrupting ability was 0.10% in data set [5] (peptide concentration 6.25 μM); 0.28% in data set [5] (peptide concentration 12.5 μM); 0.41% in data set [5] (peptide concentration 25 μM); 0% in data set [5] (peptide concentration 50 μM); 0.15% in data set [5] (peptide concentration 100 μM).

Consider ILKKLLKKVKSI-NH2 [Hp1404-T1d], for which, in data set [1], the “propidium iodide fluorescence signal shift (membrane damage)” value is “no such shift of fluorescence signal”. In addition, in data set [2], the viability at 24 h, 6.25 µM turned out to be 100%. Also, the viability at 24 h, 12.5 µM in data set [2] came out at 53.9%. Moreover, in data set [2], the viability at 24 h, 25 µM came to 38.9%. For the same substance, in data set [2], the viability at 24 h, 50 µM amounted to 33.1%. In data set [2], the viability at 24 h, 100 µM was found to be 34.6%. For the same substance, the Minimal inhibitory concentration is above 25 µM in data set [3] and 6.25 µM in data set [6]. The “binding to LPS, rank order” value in data set [4] was “binding to LPS increases in order of Hp1404-T1e, Hp1404-T1d, Hp1404-T1c, and Hp1404”. In addition, the Erythrocyte disrupting ability in data set [5] (peptide concentration 6.25 μM), in data set [5] (peptide concentration 12.5 μM), in data set [5] (peptide concentration 25 μM), in data set [5] (peptide concentration 50 μM) and in data set [5] (peptide concentration 100 μM) was 0% in each case.

The values are drawn from US11117931B2, “Antimicrobial peptide derived from Hp1404 peptide and uses thereof” (priority 2017, dated 2021).
